Data as given in paper PMC4703546 (Bioorganic & medicinal chemistry, 2015).

Assays:
[1] = test system: all c-Met-dependant cell lines; experiment: MTT proliferation assay, panel summary; assay type: cell-based; conditions: Homo sapiens, read-out: IC50 range, antiproliferative activity
[2] = test system: MDA-MB-231/GFP; experiment: Orthotopic athymic nude mouse xenograft model; assay type: in vivo, athymic nude mice; conditions: 10 mg/kg i.p. 3 times per week
[3] = test system: c-Met in MDA-MB-231 cells; experiment: Western blot analysis of c-Met and p-c-Met levels; assay type: cell-based, human; conditions: MDA-MB-231, 15 and 30 μM, 48 h
[4] = test system: HL-60 cells; conditions: HL-60, 5 and 10 μM; cited from earlier work
[5] = test system: non-tumorigenic human mammary epithelial cells MCF-10A

Compound | IC50 [1] [µM] | effect on body weight gains and gross phenotype ([2]; listed as meleagrin) | effect on body weight gains and gross phenotype ([2]; listed as meleagrin (1)) | effect on phosphorylated (activated) c-Met level [3] | effect on total c-Met level [3] | cytotoxic mechanism by flow cytometric analysis [4] | toxicity towards MCF-10A cells [5]
O=C1N[C@@H](Cc2c[nH]c3ccccc23)C(=O)N/C1=C/c1cnc[nH]1 [DHTD (3), dehydrohistidyltryptophenyl-diketopiperazine] | 20 to 40 | – | – | – | – | – | –
C=CC(C)(C)[C@@]12C=C(O)C(=O)N3/C(=C/c4cnc[nH]4)C(=O)N[C@]31N(OC)c1ccccc12 [Meleagrin (1), meleagrin] | 1.8 to 8.9 | not adversely affecting | no significant changes | significant reduction | no effect | arrested the cell cycle through G2/M phase | minimal
C=CC(C)(C)[C@@]12C=C(O)C(=O)N3/C(=C/c4cn([C@H]5C[C@@]6(O)O[C@@H]7C[C@@]6(C)[C@]6(C[C@]8(C)CCC(C)(C)[C@@H]8[C@@H]76)[C@@H]5C)cn4)C(=O)N[C@]31N(OC)c1ccccc12 [Meleagrin B] | – | – | – | – | – | induced HL-60 cells apoptosis | –
C=CC(C)(C)[C@@]12C[C@H]3C(=O)N/C(=C/c4c[nH]cn4)C(=O)N3[C@@H]1Nc1ccccc12 [Roquefortine C (2), roquefortine C] | 20 to 40 | – | – | – | – | – | –
